# Results: PubChem BioAssay AID330 (DTP/NCI, 2004)
# “And” between values parts separate entries of the source, which are not always exact repeats. Equal entries are not always repeated. Toxic doses and inconclusive results are not listed.
# Test system: P388 leukemia ip, CD2F1 mice, survival T/C
# Test: NCI In Vivo Anticancer Drug Screen. Data for tumor model P388 Leukemia (intraperitoneal) in CD2F1 (CDF1) mice
# Conditions: endpoint: median survival time, higher = longer survival
# Outline: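 Mice carrying the transplanted tumor received test compound or vehicle. Survival was recorded in each group, and the value is the treated-group measurement divided by that of the vehicle-treated control group.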
# [1] = dose: 50.0 mg/kg/injection, schedule: Q01DX009 (ip), vehicle: saline with Tween-80
# [2] = dose: 100.0 mg/kg/injection, schedule: Q01DX009 (ip), vehicle: saline with Tween-80
# [3] = dose: 200.0 mg/kg/injection, schedule: Q01DX009 (ip), vehicle: saline with Tween-80
# [4] = dose: 50.0 mg/kg/injection, schedule: Q01DX009 (ip), vehicle: saline
# [5] = dose: 100.0 mg/kg/injection, schedule: Q01DX009 (ip), vehicle: saline
# [6] = dose: 6.25 mg/kg/injection, schedule: Q04DX003 (ip), vehicle: distilled water + Tween-80
# [7] = dose: 12.5 mg/kg/injection, schedule: Q04DX003 (ip), vehicle: distilled water + Tween-80
# [8] = dose: 25.0 mg/kg/injection, schedule: Q04DX003 (ip), vehicle: distilled water + Tween-80
# [9] = dose: 50.0 mg/kg/injection, schedule: Q04DX003 (ip), vehicle: distilled water + Tween-80
# [10] = dose: 100.0 mg/kg/injection, schedule: Q04DX003 (ip), vehicle: saline with Tween-80
# [11] = dose: 200.0 mg/kg/injection, schedule: Q04DX003 (ip), vehicle: saline with Tween-80
# [12] = dose: 400.0 mg/kg/injection, schedule: Q04DX003 (ip), vehicle: saline with Tween-80
smiles,measurement,setting,value
CC1(C)CC[P+](CC[P+]2(c3ccccc3)CCC(C)(C)c3ccccc32)(c2ccccc2)c2ccccc21 (configuration not stated),T/C,"dose: 0.75 mg/kg/injection, schedule: Q01DX005 (ip), vehicle: saline",103 % of control
same,T/C,"dose: 1.5 mg/kg/injection, schedule: Q01DX005 (ip), vehicle: saline",101 % of control
same,T/C,"dose: 3.0 mg/kg/injection, schedule: Q01DX005 (ip), vehicle: saline",103 % of control
same,T/C,"dose: 3.12 mg/kg/injection, schedule: Q01DX005 (ip), vehicle: suspension in saline",89 % of control
same,T/C,"dose: 12.5 mg/kg/injection, schedule: Q01DX005 (ip), vehicle: saline with Tween-80",100 % of control
same,T/C,"dose: 25.0 mg/kg/injection, schedule: Q01DX005 (ip), vehicle: saline with Tween-80",100 % of control
same,T/C,"dose: 50.0 mg/kg/injection, schedule: Q01DX005 (ip), vehicle: saline with Tween-80",102 % of control
O=C(O)C1=Cc2ccccc2OC1,T/C,"dose: 100.0 mg/kg/injection, schedule: Q04DX003 (ip), vehicle: Klucel (hydroxypropylcellulose) (HPC)",101 % of control
same,T/C,"dose: 200.0 mg/kg/injection, schedule: Q04DX003 (ip), vehicle: Klucel (hydroxypropylcellulose) (HPC)",107 % of control
same,T/C,"dose: 400.0 mg/kg/injection, schedule: Q04DX003 (ip), vehicle: Klucel (hydroxypropylcellulose) (HPC)",105 % of control
OC1(c2cccnc2)C=CCC1 (configuration not stated),T/C,[1],100 % of control
same,T/C,[2],102 % of control
same,T/C,[3],100 % of control
C[C@@H]1CN(c2ccccc2)C[C@@H](C)OS(=O)O1,T/C,"dose: 100.0 mg/kg/injection, schedule: Q04DX002 (ip), vehicle: Klucel (hydroxypropylcellulose) (HPC)",104 % of control
same,T/C,"dose: 200.0 mg/kg/injection, schedule: Q04DX002 (ip), vehicle: Klucel (hydroxypropylcellulose) (HPC)",97 % of control
same,T/C,"dose: 400.0 mg/kg/injection, schedule: Q04DX002 (ip), vehicle: Klucel (hydroxypropylcellulose) (HPC)",100 % of control
N#CC1=C(Nc2ccccc2Cl)SC2(CCCC2)NC1=O,T/C,"dose: 60.0 mg/kg/injection, schedule: Q01DX005 (ip), vehicle: Klucel (hydroxypropylcellulose) (HPC)",100 % of control
same,T/C,"dose: 120.0 mg/kg/injection, schedule: Q01DX005 (ip), vehicle: Klucel (hydroxypropylcellulose) (HPC)",100 % of control
same,T/C,"dose: 240.0 mg/kg/injection, schedule: Q01DX005 (ip), vehicle: Klucel (hydroxypropylcellulose) (HPC)",92 % of control
COC(=O)c1cc(C)n(Cc2ccccc2)c1,T/C,"dose: 100.0 mg/kg/injection, schedule: Q01DX001 (ip), vehicle: saline with Tween-80",97 % of control
same,T/C,"dose: 200.0 mg/kg/injection, schedule: Q01DX001 (ip), vehicle: saline with Tween-80",99 % of control
same,T/C,"dose: 400.0 mg/kg/injection, schedule: Q01DX001 (ip), vehicle: saline with Tween-80",97 % of control
CN(C)P(=O)(N=S=NC(C)(C)C)N(C)C,T/C,[4],109 % of control
same,T/C,[5],115 % of control
CCCCCCCN(CCCCCCC)C(=N)c1ccnc2ccccc12,T/C,"dose: 6.25 mg/kg/injection, schedule: Q01DX005 (ip), vehicle: Klucel (hydroxypropylcellulose) (HPC)",101 % of control
same,T/C,"dose: 12.5 mg/kg/injection, schedule: Q01DX005 (ip), vehicle: Klucel (hydroxypropylcellulose) (HPC)",99 % of control
same,T/C,"dose: 25.0 mg/kg/injection, schedule: Q01DX005 (ip), vehicle: Klucel (hydroxypropylcellulose) (HPC)",100 % of control
CC(C)=CCC/C(C)=C\CCl,T/C,"dose: 25.0 mg/kg/injection, schedule: Q01DX009 (ip), vehicle: saline with Tween-80",107 % of control
same,T/C,[1],98 % of control
same,T/C,[2],87 % of control
same,T/C,[3],90 % of control
Cc1cccc(/C=N/Nc2cc(C)nc3ccccc23)n1,T/C,"dose: 50.0 mg/kg/injection, schedule: Q01DX009 (ip), vehicle: Klucel (hydroxypropylcellulose) (HPC)",109 % of control
same,T/C,"dose: 100.0 mg/kg/injection, schedule: Q01DX009 (ip), vehicle: Klucel (hydroxypropylcellulose) (HPC)",118 % of control
same,T/C,"dose: 200.0 mg/kg/injection, schedule: Q01DX009 (ip), vehicle: Klucel (hydroxypropylcellulose) (HPC)",117 % of control
COc1ccc(C2CC(=O)NC(N)=N2)c(O)c1 (configuration not stated),T/C,[4],103 % of control
same,T/C,[5],104 % of control
same,T/C,"dose: 200.0 mg/kg/injection, schedule: Q01DX009 (ip), vehicle: saline",103 % of control
CSc1cccc(NC(=O)Oc2ccc(Br)cc2)c1,T/C,[1],91 % of control
same,T/C,[2],93 % of control
same,T/C,[3],101 % of control
O=C1c2ccccc2C(=C(c2ccccc2)c2ccccc2)c2ccccc21,T/C,"dose: 50.0 mg/kg/injection, schedule: Q01DX005 (ip), vehicle: Klucel (hydroxypropylcellulose) (HPC)",89 % of control
same,T/C,"dose: 100.0 mg/kg/injection, schedule: Q01DX005 (ip), vehicle: Klucel (hydroxypropylcellulose) (HPC)",88 % of control
same,T/C,"dose: 200.0 mg/kg/injection, schedule: Q01DX005 (ip), vehicle: Klucel (hydroxypropylcellulose) (HPC)",86 % of control
CCOC1OCN(Cc2ccccc2)CC1(C)C (configuration not stated),T/C,[1],114 % of control
same,T/C,[2],115 % of control
same,T/C,[3],117 % of control
COc1cccc2c1C(=O)c1c(O)c3c(c(O)c1C2=O)C[C@@](O)(C(C)=O)C[C@@H]3OC1CC(N=C(N)CCSSCCC(N)=NC2CC(O[C@H]3C[C@](O)(C(C)=O)Cc4c(O)c5c(c(O)c43)C(=O)c3c(OC)cccc3C5=O)OC(C)C2O)C(O)C(C)O1 (some centres not stated),T/C,"dose: 3.12 mg/kg/injection, schedule: Q04DX003 (ip), vehicle: distilled water + Tween-80",115 % of control
same,T/C,[6],108 % of control and 122 % of control
same,T/C,[7],118 % of control
same,T/C,[8],116 % of control
same,T/C,[9],105 % of control
same,T/C,"dose: 100.0 mg/kg/injection, schedule: Q04DX003 (ip), vehicle: distilled water + Tween-80",121 % of control
COc1cccc2c1C(=O)c1c(O)c3c(c(O)c1C2=O)CC(O)(C(C)=O)CC3OC1CC(SC)C(OC(C)=O)C(C)O1 (configuration not stated),T/C,"dose: 3.13 mg/kg/injection, schedule: Q04DX003 (ip), vehicle: distilled water + Tween-80",100 % of control
same,T/C,"dose: 3.13 mg/kg/injection, schedule: Q04DX003 (ip), vehicle: water",101 % of control
same,T/C,[6],105 % of control
same,T/C,"dose: 6.25 mg/kg/injection, schedule: Q04DX003 (ip), vehicle: water",96 % of control
same,T/C,[7],97 % of control
same,T/C,"dose: 12.5 mg/kg/injection, schedule: Q04DX003 (ip), vehicle: water",97 % of control
same,T/C,[8],100 % of control
same,T/C,"dose: 25.0 mg/kg/injection, schedule: Q04DX003 (ip), vehicle: water",100 % of control
same,T/C,[9],110 % of control
same,T/C,"dose: 50.0 mg/kg/injection, schedule: Q04DX003 (ip), vehicle: water",96 % of control
c1ccc(Cn2nnnc2-c2ccccc2)cc1,T/C,[10],100 % of control
same,T/C,[11],96 % of control
same,T/C,[12],88 % of control
Cc1ccc([N+](=O)[O-])cc1NC(=O)COc1ccc(Cl)cc1,T/C,[10],100 % of control
same,T/C,[11],90 % of control
same,T/C,[12],90 % of control
COc1cc(N(CCCl)CCCl)c(OC)cc1/C=N\Nc1nncn1N,T/C,"dose: 0.25 mg/kg/injection, schedule: Q01DX009 (ip), vehicle: saline",95 % of control
same,T/C,"dose: 0.5 mg/kg/injection, schedule: Q01DX009 (ip), vehicle: saline",104 % of control
same,T/C,"dose: 0.63 mg/kg/injection, schedule: Q04DX003 (ip), vehicle: saline",100 % of control
same,T/C,"dose: 1.25 mg/kg/injection, schedule: Q01DX009 (ip), vehicle: saline",154 % of control
same,T/C,"dose: 1.25 mg/kg/injection, schedule: Q04DX003 (ip), vehicle: saline",100 % of control
same,T/C,"dose: 2.5 mg/kg/injection, schedule: Q01DX009 (ip), vehicle: saline",154 % of control
same,T/C,"dose: 2.5 mg/kg/injection, schedule: Q04DX003 (ip), vehicle: saline",107 % of control
same,T/C,"dose: 5.0 mg/kg/injection, schedule: Q01DX009 (ip), vehicle: saline",186 % of control
same,T/C,"dose: 5.0 mg/kg/injection, schedule: Q04DX003 (ip), vehicle: saline",123 % of control
